We go through 3 molecules from US11801000B2, “Hormone electrochemical biosensor” (Trustees of Boston University, priority 2021, dated 2023).

Entries after “also recorded” stand apart in the source; their conditions may differ.

Series [1] concerns KSDH1. Put plainly: Amplex UltraRed assay (H2O2 detection by fluorescence). The series is classed as biochemical, Pimelobacter simplex. Conditions: 500 μM final PRG, CRT; 4.56 μM KSDH1; normalized (analytes without enzyme subtracted). How it is done: FIGS. 6A-6B are schematics and graphs detailing the Amplex® UltraRed Reagent assay in which fluorescence is analyte limited, not enzyme limited. FIG. 6A is a schematic showing the Amplex® UltraRed mechanism for oxidase enzymes. Hormone is oxidized into product and H2O2 with presence of […] and O2. Horseradish peroxidase (HRP) then oxidizes Amplex® UltraRed in the presence of H2O2 into resorufin, which is fluorescent.
In Vitro Enzyme Characterization: Amplex® UltraRed assays were performed per instruction of the manufacturer (Thermo Fisher Scientific, Cambridge, Mass.). Final concentrations of Amplex® UltraRed, 500 uM, and HRP, 1 U/mL, in a total volume of 20 μL were used. Hormone and KSDH1 and KSDH2 concentrations varied with experiment. All measurements of fluorescence were done in a 384 well flat bottom black polystyrene microplate (Corning Inc.™, Corning, N.Y.) and read in an Infinite M200 Pro™ (TECAN Group Ltd.™, Medford, Mass.) spectrophotometer at room temperature with the excitation set to 490 nm and emission at 585 nm. Readings were done over 1 hour with each well read every 30 seconds.
(§1) The FAD-binding (KSDH1) enzyme was used to develop and optimize a hormone electrochemical biosensor. […] KSDH1 was also assessed using a DCPIP Assay to test whether it is a dehydrogenase.

The subject of series [2] is KSDH1. In words: 2,6-Dichlorophenolindophenol (DCPIP) dehydrogenase functional assay. The series is classed as biochemical, Pimelobacter simplex. Conditions: for Binding affinity, kinetics derived from velocity by hormone concentration experiment: FIG. 9C-9D. How it is done:
A 2,6-Dichlorophenolindophenol functional assay was used to test whether KSDH1 is a dehydrogenase (FIG. 9A).
as §1

Series [3] can be described thus: Cyclic voltammetry, electroactivity on DS110 carbon SPE. The series is classed as physicochemical.
The test system of series [4] is Pimelobacter simplex. Put plainly: RNA-Seq of Pimelobacter simplex in the presence of hormone. It is filed as cell-based. Conditions: P. simplex grown in the presence of progesterone. How it is done:
FIG. 3 is a series of graphs showing that RNA-Seq identified the steroid degrading genome cluster in Pimelobacter simplex.
Strain RNA Extraction: Cells were grown in 5 mL M18 at a starting OD600 of 0.005 with 21.6 μM hormone in 14 mL polypropylene round-bottom tubes (Corning Inc.™, Corning, N.Y.) in singlet. The cells were incubated at 30° C. with continuous orbital shaking at 150 rpm until the end of lag-phase (3 hours) and mid-log phase (7.5 hours) from the start of inoculation. Controls were grown in the same conditions without hormone. […] RNA samples were subsequently quantified using Qubit RNA HS Assay Kit™ (Thermo Fisher Scientific Inc.™, Cambridge, Mass.) and analyzed using a RNA 6000 Pico Kit™ (Agilent Technologies Inc.™, Santa Clara, Calif.) in a 2100 Bioanalyzer™ (Agilent Technologies Inc.™, Santa Clara, Calif.). […]
RNA-Seq Library Preparation: After RNA samples have been quantified and analyzed they were DNase treated using TURBO™ DNase 2 U/μL (Thermo Fisher Scientific Inc™ Cambridge, Mass.) and cleaned using Agencourt RNAClean™ XP SPRI beads (Beckman Coulter, Inc.™, Brea, Calif.). […] Whole transcriptome RNA sequencing was performed by a NextSeq 500™ (Illumina Inc.™, San Diego, Calif.) at high output (400 M reads) with 75 bp paired end sequencing read length. The data was then analyzed in-house through a proprietary lab computational pipeline.

Series [5] is described as follows: KSDH1 stability (storage, immobilizing polymer) on biosensor. The series is classed as physicochemical. The source says: FIG. 27. KSDH1 precipitation in the presence of chitosan, an immobilizing polymer, is evident.
FIG. 30A-B. Glutaraldehyde immobilization decreases signal (FIG. 30A).

[6] abbreviates: DS110, DMSO as solvent (FIG. 16A).
The mark [7] stands for this setting: DS110, EtOH as solvent (FIG. 16B).

Turning to `C[C@]12CCC(=O)C=C1CC[C@@H]1[C@@H]2[C@@H](O)C[C@@]2(C)[C@H]1CC[C@]2(O)C(=O)CO` [Cortisol, hydrocortisone], the “KSDH1 response (fluorescence signal) to analyte” value in series [1] is “increase of fluorescence; also recorded: responsive”. Besides, the “Binding affinity, kinetics derived from velocity by hormone concentration experiment” value in series [2] is given as “strong”. Moreover, the “Electroactivity by cyclic voltammetry” value in series [3] (setting [6]) and in series [3] (setting [7]) was “not electroactive” in each case.
With `CC(=O)[C@H]1CC[C@H]2[C@@H]3CCC4=CC(=O)CC[C@]4(C)[C@H]3CC[C@]12C` [Progesterone, progesterone], the “KSDH1 response (fluorescence signal) to analyte” value in series [1] was “increase of fluorescence; also recorded: responsive”. Also, the “Binding affinity, kinetics derived from velocity by hormone concentration experiment” value in series [2] is “strong”. The “KSDH1 sensitivity in sterol screen (DCPIP reduction, absorbance at OD600 nm)” value in series [2] (sterol screen, FIG. 9B) is reported as “DCPIP was reduced; also recorded: high sensitivity”. Further, the “Electroactivity by cyclic voltammetry” value in series [3] (setting [6]) and in series [3] (setting [7]) was “not electroactive” in each case. Moreover, the “Expression of sterol responsive enzymes KSDH1 and KSDH2 (SRGI cluster)” value in series [4] is “highly expressed”.

B1: 3-ketosteroid-Δ1-dehydrogenase enzyme 1 (protein)
chain: MDWAEEYDVLVAGSGAGGMAGTYTAAREGLSVCLVEAGDKFGGTTAYSGGGGAWFPANPVLLRAGTDDTIEDALEYYRAVVGDRTPADLQETYVRGGAGLVAYLEEDDHFSFESYPWPDYFGDAPKARRDGQRHIIPTPLPVPSAPELREVVRGPLDNDRLGTPQPDDLFIGGRALVARFLTALATYPHATLVRETALAELVVEDGVVVGAIVETDGVRRAIRARRGVLLAAGGFEANDELRQKYGVPGVARDTMGPPTNVGAAHQAAIAVGADTDLMGEAWWSPGLTHPDGRSAFALWFTGGIFVDGAGRRFVNESAPYDRLGRAVIDHLTEGGVTPRYWMVYDHKEGSIPPVRATNVSMVDEEQYVAAGLWHTADTLPELAALIGVPADALVATVARFNELVADGYDADFGRGGEAYDRFFSGGEPPLVSIDEGPFHAAAFGISDLGTKGGLRTDTSARVLTADGTPIGGLYAAGNTMAAPSGTTYPGGGNPIGTSMLFSHLAVRHMGTEDARGSHHHHHH
modifications: 6xHis tag
On to B1, for which the “Behaviour in the presence of chitosan, an immobilizing polymer” value in series [5] (FIG. 27) is reported as “precipitation”. The “Current output after storage” value in series [5] (storage at 4 C for 1 week, two electrode configuration, DS110, +0.4V) is “no change in current output”.
